Results from patent US20100184683A1, “ANTIBACTERIAL AND ANTIFUNGAL PEPTIDES” (C3 JIAN, INC., priority 2009, published 2010).
In brackets after ≈: the same amount, converted by molar mass. Where two headings read alike, the source gives them in different places. Peptide text beside a SMILES is read from it.

Legend:
B. subtilis = type: cell-based, Bacillus subtilis
Protocol: (§1) In certain embodiments the MIC assays are performed as described herein in the Examples. For each organism, the media and growth conditions utilized is detailed in Table 8.
(§2) In certain embodiments the MIC assays are performed as follows: For each organism, the media and growth conditions utilized is detailed in Table 8.

A. niger = type: cell-based, Aspergillus niger
Protocol: as §1, §2

Candida albicans = assay: Binding of targeting peptides to Candida albicans; settings: tested at 3.13, 6.25, 12.5 and 25.0 μM in 1× PBS or HEPES/NaCl/MgCl2/0.1% CTAB
Protocol: The peptides in Table 6 were tested for binding efficiency at 3.13, 6.25, 12.5 and 25.0 μM concentrations in 1× phosphate-buffered saline or 20 mM HEPES (4-(2-hydroxyethyl)-1-piperazineethanesulfonic acid), 150 mM sodium chloride, 1 mM magnesium chloride and 0.1% CTAB.

T. rubrum = type: cell-based, Trichophyton rubrum
Protocol: as §1, §2

MRSA = type: cell-based, Methicillin-resistant Staphylococcus aureus
Protocol: as §1, §2

S. epidermidis = type: cell-based
Protocol: as §1, §2

S. pneumoniae = type: cell-based, Streptococcus pneumoniae
Protocol: as §1, §2

C. albicans = type: cell-based, Candida albicans
Protocol: as §1, §2

[1] = A. niger, Potato Dextrose Agar, 25° C., aerobic, inoculum 10^5 CFU/ml, 18-24 h or 48 h

Molecule: CSCC[C@H](NC(=O)[C@H](CCCNC(=N)N)NC(=O)[C@H](CCCNC(=N)N)NC(=O)[C@H](CC(C)C)NC(=O)[C@H](CCCNC(=N)N)NC(=O)[C@H](CCC(=O)O)NC(=O)[C@@H](NC(=O)[C@H](CS)NC(=O)CNC(=O)[C@H](CCCNC(=N)N)NC(=O)[C@@H](N)CCCNC(=N)N)[C@@H](C)O)C(=O)N[C@@H](C)C(=O)N[C@@H](CCCNC(=N)N)C(=O)N[C@@H](CCCNC(=N)N)C(=O)N[C@@H](CC(N)=O)C(=O)N[C@@H](C)C(=O)N[C@@H](Cc1c[nH]c2ccccc12)C(=O)N[C@@H](CC(=O)O)C(=O)N[C@@H](CC(C)C)C(=O)N[C@@H](Cc1ccc(O)cc1)C(=O)N[C@@H](C)C(=O)N[C@@H](CCC(=O)O)C(=O)N[C@@H](Cc1c[nH]cn1)C(=O)N[C@@H](Cc1ccccc1)C(=O)N[C@@H](Cc1ccc(O)cc1)C(=O)O [PF-148] (H-RRGCTERLRRMARRNAWDLYAEHFY-OH; N-terminus and C-terminus assumed)
- MIC (B. subtilis): 50 µM (≈ 161 µg/mL)
- MIC (A. niger): 50 µM (≈ 161 µg/mL)

Molecule: CC[C@H](C)[C@H](NC(=O)[C@H](C)NC(=O)[C@@H]1CCCN1C(=O)[C@H](Cc1ccccc1)NC(=O)[C@@H]1CCCN1C(=O)[C@H](CC(C)C)NC(=O)[C@@H](N)C(C)C)C(=O)N1CCC[C@H]1C(=O)N[C@@H](CC(C)C)C(=O)N[C@@H](CO)C(=O)N[C@@H](CCCNC(=N)N)C(=O)N[C@@H](CCCNC(=N)N)C(=O)N[C@@H](CCCNC(=N)N)C(=O)N[C@@H](C)C(=O)N[C@@H](CS)C(=O)N[C@H](C(=O)N[C@@H](C)C(=O)N[C@@H](C)C(=O)N1CCC[C@H]1C(=O)N[C@@H](CCCNC(=N)N)C(=O)N1CCC[C@H]1C(=O)N[C@@H](CCCNC(=N)N)C(=O)N[C@@H](CO)C(=O)N[C@@H](CCCNC(=N)N)C(=O)N[C@@H](CCC(N)=O)C(=O)N[C@@H](CCCNC(=N)N)C(=O)N[C@@H](C)C(=O)N[C@@H](CO)C(=O)O)C(C)C [PF-168] (H-VLPFPAIPLSRRRACVAAPRPRSRQRAS-OH; N-terminus and C-terminus assumed)
- Target(s): form of Candida albicans bound (Candida albicans): yeast cells
- MIC (T. rubrum): 50 µM (≈ 156 µg/mL)
- MIC (A. niger): 50 µM (≈ 156 µg/mL)
- MIC (MRSA): 50 µM (≈ 156 µg/mL)

Molecule: CC(C)[C@H](NC(=O)[C@H](C)NC(=O)[C@H](Cc1ccc(O)cc1)NC(=O)[C@@H](N)CC(N)=O)C(=O)N[C@H](C(=O)N[C@@H](CO)C(=O)N[C@@H](Cc1c[nH]cn1)C(=O)N[C@H](C(=O)O)[C@@H](C)O)C(C)C [PF-209] (H-NYAVVSHT-OH; N-terminus and C-terminus assumed)
- MIC (MRSA): 50 µM (≈ 44.5 µg/mL)

Molecule: CC[C@H](C)[C@H](NC(=O)[C@H](CO)NC(=O)[C@H](CC(N)=O)NC(=O)[C@H](CCCNC(=N)N)NC(=O)[C@H](CC(N)=O)NC(=O)[C@H](CC(C)C)NC(=O)[C@H](CCCCN)NC(=O)[C@H](CCCCN)NC(=O)[C@H](CCCCN)NC(=O)[C@@H](NC(=O)[C@@H]1CCCN1C(=O)[C@H](CO)NC(=O)[C@H](CCCNC(=N)N)NC(=O)[C@@H](NC(=O)[C@H](CCCNC(=N)N)NC(=O)[C@@H](NC(=O)[C@@H](N)CCSC)[C@@H](C)CC)[C@@H](C)CC)[C@@H](C)O)C(=O)N[C@@H](CO)C(=O)N[C@@H](CC(=O)O)C(=O)N[C@@H](Cc1c[nH]c2ccccc12)C(=O)N[C@@H](CCCCN)C(=O)N[C@@H](CO)C(=O)N[C@@H](CC(N)=O)C(=O)N[C@H](C(=O)N[C@@H](CO)C(=O)NCC(=O)N[C@@H](CCCNC(=N)N)C(=O)N[C@@H](Cc1ccccc1)C(=O)N[C@@H](Cc1ccccc1)C(=O)N[C@@H](Cc1ccc(O)cc1)C(=O)O)[C@@H](C)O [PF-283] (H-MIRIRSPTKKKLNRNSISDWKSNTSGRFFY-OH; N-terminus and C-terminus assumed)
- MIC (S. epidermidis): 50 µM (≈ 182 µg/mL)
- MIC (B. subtilis): 50 µM (≈ 182 µg/mL)
- MIC (T. rubrum): 50 µM (≈ 182 µg/mL)

Molecule: CC(C)C[C@H](NC(=O)[C@H](CCC(N)=O)NC(=O)[C@H](CO)NC(=O)[C@H](CCC(N)=O)NC(=O)[C@H](CC(C)C)NC(=O)[C@@H](N)CO)C(=O)NCC(=O)N1CCC[C@H]1C(=O)N[C@@H](CS)C(=O)N[C@@H](CC(C)C)C(=O)N[C@@H](Cc1c[nH]cn1)C(=O)N[C@@H](CC(=O)O)C(=O)N[C@@H](CCC(N)=O)C(=O)N[C@@H](CCCNC(=N)N)C(=O)N[C@@H](Cc1c[nH]cn1)C(=O)O [PF-448] (H-SLQSQLGPCLHDQRH-OH; N-terminus and C-terminus assumed)
- MIC (S. pneumoniae): 50 µM (≈ 85.9 µg/mL)
- MIC (A. niger): 25 µM (≈ 43 µg/mL)

Molecule: CC[C@H](C)[C@H](NC(=O)[C@H](CCC(N)=O)NC(=O)[C@H](CC(=O)O)NC(=O)[C@H](CO)NC(=O)[C@H](Cc1ccccc1)NC(=O)[C@@H](N)CCCCN)C(=O)N[C@@H](CC(=O)O)C(=O)N[C@@H](CCCCN)C(=O)NCC(=O)N[C@@H](CCC(N)=O)C(=O)N[C@@H](CC(=O)O)C(=O)N[C@@H](C)C(=O)N[C@@H](CC(C)C)C(=O)N[C@@H](CCCCN)C(=O)N[C@@H](CC(=O)O)C(=O)N[C@@H](CCCCN)C(=O)N[C@@H](CC(C)C)C(=O)NCC(=O)N[C@@H](CC(=O)O)C(=O)N[C@@H](CC(C)C)C(=O)O [PF-525] (H-KFSDQIDKGQDALKDKLGDL-OH; N-terminus and C-terminus assumed)
- MIC (S. pneumoniae): 50 µM (≈ 112 µg/mL)
- MIC (A. niger): 50 µM (≈ 112 µg/mL)

Molecule: CC[C@H](C)[C@H](NC(=O)[C@H](CC(N)=O)NC(=O)[C@@H](NC(=O)[C@H](Cc1ccccc1)NC(=O)[C@H](CCC(=O)O)NC(=O)CNC(=O)[C@H](CCC(N)=O)NC(=O)[C@H](Cc1ccccc1)NC(=O)[C@@H](N)CCCCN)[C@@H](C)O)C(=O)NCC(=O)N[C@@H](CCC(N)=O)C(=O)N[C@@H](CO)C(=O)N[C@@H](Cc1ccc(O)cc1)C(=O)N[C@H](C(=O)N[C@H](C(=O)N[C@@H](CO)C(=O)N[C@@H](C)C(=O)N[C@@H](CO)C(=O)N[C@@H](Cc1c[nH]cn1)C(=O)N[C@@H](CCSC)C(=O)N[C@@H](CO)C(=O)N[C@H](C(=O)N[C@@H](CO)C(=O)N[C@@H](CC(C)C)C(=O)N[C@@H](CC(N)=O)C(=O)N[C@H](C(=O)NCC(=O)N[C@@H](CCCCN)C(=O)O)[C@@H](C)O)[C@@H](C)O)C(C)C)[C@@H](C)CC [PF-583] (H-KFQGEFTNIGQSYIVSASHMSTSLNTGK-OH; N-terminus and C-terminus assumed)
- MIC (S. epidermidis): 50 µM (≈ 152 µg/mL)
- Target(s): form of Candida albicans bound (Candida albicans): hyphae
- MIC (MRSA): 50 µM (≈ 152 µg/mL)

Molecule: CC[C@H](C)[C@H](N)C(=O)N[C@@H](CC(C)C)C(=O)N[C@H](C(=O)N[C@@H](CC(C)C)C(=O)N[C@@H](CC(C)C)C(=O)N[C@@H](C)C(=O)N[C@@H](CC(C)C)C(=O)N[C@@H](CCC(N)=O)C(=O)N[C@H](C(=O)N[C@@H](CCC(=O)O)C(=O)N[C@@H](CC(C)C)C(=O)N[C@@H](CC(=O)O)C(=O)N[C@@H](CO)C(=O)N[C@@H](CCCCN)C(=O)N[C@@H](Cc1ccccc1)C(=O)N[C@@H](CCC(N)=O)C(=O)N[C@@H](Cc1ccc(O)cc1)C(=O)O)C(C)C)C(C)C [PF-C157] (H-ILVLLALQVELDSKFQY-OH; N-terminus and C-terminus assumed)
- MIC (C. albicans): 50 µM (≈ 99.6 µg/mL)

Molecule: CC(C)[C@H](NC(=O)[C@@H](N)Cc1ccc(O)cc1)C(=O)N[C@@H](CC(N)=O)C(=O)N[C@@H](Cc1ccc(O)cc1)C(=O)N[C@@H](CC(N)=O)C(=O)N[C@@H](CCC(N)=O)C(=O)N[C@@H](CO)C(=O)N[C@@H](Cc1ccccc1)C(=O)N[C@@H](CC(N)=O)C(=O)N[C@@H](CO)C(=O)NCC(=O)N[C@@H](Cc1c[nH]c2ccccc12)C(=O)O [PF-C220] (H-YVNYNQSFNSGW-OH; N-terminus and C-terminus assumed)
- MIC (C. albicans): 50 µM (≈ 73.9 µg/mL)

Molecule: LSEMERRRLRKRA [PF-529]
- MIC (S. pneumoniae; S. pneumoniae, TSB supplemented with 5% yeast extract, 37° C., 10% CO2, inoculum 10^6 CFU/ml, 18-24 h or 48 h): 50 µM
- MIC (A. niger; [1]): 50 µM

Molecule: RESKLIAMADMIRRRI [PF-545]
- MIC (B. subtilis; B. subtilis, BHI, 30° C., aerobic, inoculum 10^5 CFU/ml, 18-24 h or 48 h): 25 µM
- MIC (A. niger; [1]): 50 µM
- MIC (MRSA; MRSA, BHI supplemented with 2% glucose, 37° C., aerobic, inoculum 10^5 CFU/ml, 18-24 h or 48 h): 50 µM
